The supplement of paper PMC11208160

What was measured:
[1] = recombinant barcode read abundance after kanamycin selection (control-corrected) (log10(CPM+1)); higher = more efficient recombination; sequences stand for … in AGTGCAGAGAAAATCGGCCAGTTTTCTCTGCCTGCAGTCCGCATGCCGT…ATTTATGCAGCGGACTGCCTTTCTCCCAAAGTGATAAACCGGACAGTATCATGGACCGGTTTTCCCGGTAATCCGTATTTGCAAGGTTGGTTTCACT; site = the 11-nt target
Description: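 Same pooled E. coli target screen (IS621 bridge recombinase, kanamycin selection, control-corrected CPM, mean of 2 biological replicates). Here the two core-binding nucleotides of the LTG and RTG of the bridge RNA target-binding loop are mutated. Target and donor CT cores are held constant, and the other 9 guide positions match the target. The target is read from the library oligo sequence. Molecule = full bridge RNA written as DNA: nt 1-80 from the library oligo, rest WT scaffold.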

[2] = recombinant barcode read abundance after kanamycin selection (control-corrected) (log10(CPM+1)); higher = more efficient recombination; sequences stand for … in AGTGCAGAGAAAATCGGCCAGTTTTCTCTGCCTGCAGTCCGCATGCCGT…AGATTTATGCAGCGGACTGCCTTTCTCCCAAAGTGATAAACCGGACAGTATCATGGACCGGTTTTCCCGGTAATCCGTATTTGCAAGGTTGGTTTCACT; site = the 11-nt target
In short: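 In E. coli, a pooled library matched targets to IS621 bridge RNA target-binding loops and was introduced alongside a donor plasmid. Cells went onto chloramphenicol/ampicillin/kanamycin with 0.1 mM IPTG or onto chloramphenicol/ampicillin LB agar as control, in duplicate. Recombination efficiency, from recombinant-junction barcodes as counts per million, is averaged and control-corrected. It is reported as log10(CPM+1).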

Row | Sequence | recombinant barcode read abundance (log10) [1] | recombinant barcode read abundance (log10) [2]
1 | AAACACAAATGGGTTCTAACCTGTTGCCTTT [AAACACACTAG_LTGcore_AA_RTGcore_AA] (site AAACACACTAG) (LTG core: AA, RTG core: AA) | 0.0994 | –
2 | AAACACAAGTGGGTTCTAACCTGTTGCCTAG [AAACACACTAG_LTGcore_AG_RTGcore_CT] (site AAACACACTAG) (LTG core: AG, RTG core: CT) | 0.0385 | –
3 | AAACACACCTGGGTTCTAACCTGTTGCCTGG [AAACACACTAG_LTGcore_CC_RTGcore_CC] (site AAACACACTAG) (LTG core: CC, RTG core: CC) | 1.46 | –
4 | AAACACACGTGGGTTCTAACCTGTTGCCTAG [AAACACACTAG_LTGcore_CG_RTGcore_CT] (site AAACACACTAG) (LTG core: CG, RTG core: CT) | 0.622 | –
5 | AAACACACTTGGGTTCTAACCTGTTGCCTGG [AAACACACTAG_LTGcore_CT_RTGcore_CC] (site AAACACACTAG) (LTG core: CT, RTG core: CC) | 0.927 | –
6 | AAACACACTTGGGTTCTAACCTGTTGCCTGT [AAACACACTAG_LTGcore_CT_RTGcore_AC] (site AAACACACTAG) (LTG core: CT, RTG core: AC) | 0.639 | –
7 | AAACACACTTGGGTTCTAACCTGTTGCCTTT [AAACACACTAG_LTGcore_CT_RTGcore_AA] (site AAACACACTAG) (LTG core: CT, RTG core: AA) | 0.938 | –
8 | AAACACAGATGGGTTCTAACCTGTTGCCTAG [AAACACACTAG_LTGcore_GA_RTGcore_CT] (site AAACACACTAG) (LTG core: GA, RTG core: CT) | 0.0116 | –
9 | AAACACATGTGGGTTCTAACCTGTTGCCTCA [AAACACACTAG_LTGcore_TG_RTGcore_TG] (site AAACACACTAG) (LTG core: TG, RTG core: TG) | 0.0962 | –
10 | AAACACATTTGGGTTCTAACCTGTTGCCTAG [AAACACACTAG_LTGcore_TT_RTGcore_CT] (site AAACACACTAG) (LTG core: TT, RTG core: CT) | 0.0289 | –
11 | AAACAGTAGTGGGTTCTAACCTGTTGCCTCT [AAACAGTCTAG_LTGcore_AG_RTGcore_AG] (site AAACAGTCTAG) (LTG core: AG, RTG core: AG) | 0.13 | –
12 | AAACAGTATTGGGTTCTAACCTGTTGCCTAT [AAACAGTCTAG_LTGcore_AT_RTGcore_AT] (site AAACAGTCTAG) (LTG core: AT, RTG core: AT) | 0.204 | –
13 | AAACAGTCTTGGGTTCTAACCTGTTGCCTAG [AAACAGTCTAG_LTGcore_CT_RTGcore_CT] (site AAACAGTCTAG) (LTG core: CT, RTG core: CT) | 2.46 | –
14 | AAACAGTCTTGGGTTCTAACCTGTTGCCTGA [AAACAGTCTAG_LTGcore_CT_RTGcore_TC] (site AAACAGTCTAG) (LTG core: CT, RTG core: TC) | 0.883 | –
15 | AAACAGTCTTGGGTTCTAACCTGTTGCCTGG [AAACAGTCTAG_LTGcore_CT_RTGcore_CC] (site AAACAGTCTAG) (LTG core: CT, RTG core: CC) | 0.921 | –
16 | AAACAGTCTTGGGTTCTAACCTGTTGCCTTA [AAACAGTCTAG_LTGcore_CT_RTGcore_TA] (site AAACAGTCTAG) (LTG core: CT, RTG core: TA) | 1.78 | –
17 | AAACAGTGCTGGGTTCTAACCTGTTGCCTAG [AAACAGTCTAG_LTGcore_GC_RTGcore_CT] (site AAACAGTCTAG) (LTG core: GC, RTG core: CT) | 0.16 | –
18 | AAACAGTTCTGGGTTCTAACCTGTTGCCTGA [AAACAGTCTAG_LTGcore_TC_RTGcore_TC] (site AAACAGTCTAG) (LTG core: TC, RTG core: TC) | 0.262 | –
19 | AAACATGAATGGGTTCTAACCTGTTGCCTTT [AAACATGCTAG_LTGcore_AA_RTGcore_AA] (site AAACATGCTAG) (LTG core: AA, RTG core: AA) | 0.133 | –
20 | AAACATGACTGGGTTCTAACCTGTTGCCTAG [AAACATGCTAG_LTGcore_AC_RTGcore_CT] (site AAACATGCTAG) (LTG core: AC, RTG core: CT) | 0.0862 | –
21 | AAACATGATTGGGTTCTAACCTGTTGCCTAT [AAACATGCTAG_LTGcore_AT_RTGcore_AT] (site AAACATGCTAG) (LTG core: AT, RTG core: AT) | 0.0454 | –
22 | AAACATGCATGGGTTCTAACCTGTTGCCTAG [AAACATGCTAG_LTGcore_CA_RTGcore_CT] (site AAACATGCTAG) (LTG core: CA, RTG core: CT) | 0.141 | –
23 | AAACATGCATGGGTTCTAACCTGTTGCCTTG [AAACATGCTAG_LTGcore_CA_RTGcore_CA] (site AAACATGCTAG) (LTG core: CA, RTG core: CA) | 0.0197 | –
24 | AAACATGCTTGGGTTCTAACCTGTTGCCTAG [AAACATGCTAG_LTGcore_CT_RTGcore_CT] (site AAACATGCTAG) (LTG core: CT, RTG core: CT) | 1.43 | –
25 | AAACATGCTTGGGTTCTAACCTGTTGCCTGA [AAACATGCTAG_LTGcore_CT_RTGcore_TC] (site AAACATGCTAG) (LTG core: CT, RTG core: TC) | 1.4 | –

Row | Sequence | recombinant barcode read abundance (log10) [1] | recombinant barcode read abundance (log10) [2]
26 | AAACATGGCTGGGTTCTAACCTGTTGCCTAG [AAACATGCTAG_LTGcore_GC_RTGcore_CT] (site AAACATGCTAG) (LTG core: GC, RTG core: CT) | 0.349 | –
27 | AAACATGGCTGGGTTCTAACCTGTTGCCTGC [AAACATGCTAG_LTGcore_GC_RTGcore_GC] (site AAACATGCTAG) (LTG core: GC, RTG core: GC) | 0.233 | –
28 | AAACATGTGTGGGTTCTAACCTGTTGCCTAG [AAACATGCTAG_LTGcore_TG_RTGcore_CT] (site AAACATGCTAG) (LTG core: TG, RTG core: CT) | 0.0752 | –
29 | AAACATGTTTGGGTTCTAACCTGTTGCCTAA [AAACATGCTAG_LTGcore_TT_RTGcore_TT] (site AAACATGCTAG) (LTG core: TT, RTG core: TT) | 0.632 | –
30 | ACGGGACAGTGGGTTCTAACCTGTTGCAGAG [ACGGGACCTCT_LTGcore_AG_RTGcore_CT] (site ACGGGACCTCT) (LTG core: AG, RTG core: CT) | 0.111 | –
31 | ACGGGACCATGGGTTCTAACCTGTTGCAGAG [ACGGGACCTCT_LTGcore_CA_RTGcore_CT] (site ACGGGACCTCT) (LTG core: CA, RTG core: CT) | 2.09 | –
32 | ACGGGACCATGGGTTCTAACCTGTTGCAGTG [ACGGGACCTCT_LTGcore_CA_RTGcore_CA] (site ACGGGACCTCT) (LTG core: CA, RTG core: CA) | 0.127 | –
33 | ACGGGACCCTGGGTTCTAACCTGTTGCAGAG [ACGGGACCTCT_LTGcore_CC_RTGcore_CT] (site ACGGGACCTCT) (LTG core: CC, RTG core: CT) | 2.22 | –
34 | ACGGGACCTTGGGTTCTAACCTGTTGCAGTT [ACGGGACCTCT_LTGcore_CT_RTGcore_AA] (site ACGGGACCTCT) (LTG core: CT, RTG core: AA) | 0.29 | –
35 | TTGGGTGCTTGGGTTCTAACCTGTTGCAT (site TAGGCTGCTAT) | – | 0.16
36 | TTGGGTGCTTGGGTTCTAACCTGTTGCAT (site TTGGGTGCTAT) | – | 1.3
37 | TTGGGTTCTTGGGTTCTAACCTGTTGCCT (site TTGGGTGCTCG) | – | 0.0625
38 | TTGGGTTCTTGGGTTCTAACCTGTTGCCT (site TTGGGTTCTAG) | – | 0.767
39 | TTGTACACTTGGGTTCTAACCTGTTGCTC (site CAACTAGCTAT) | – | 0.043
40 | TTGTACACTTGGGTTCTAACCTGTTGCTC (site TTGTACACTGA) | – | 1.06
41 | TTGTACTCTTGGGTTCTAACCTGTTGCTT (site TTGTACTCTAA) | – | 0.453
42 | TTGTACTCTTGGGTTCTAACCTGTTGCTT (site TTGTGTTCTAA) | – | 0.0725
43 | TTGTATTCTTGGGTTCTAACCTGTTGCCT (site TTGAATTCTAA) | – | 0.0409
44 | TTGTATTCTTGGGTTCTAACCTGTTGCCT (site TTGTATTCTAG) | – | 0.679
45 | TTGTCGACTTGGGTTCTAACCTGTTGCCA (site TTGACGACTTG) | – | 0.105
46 | TTGTCGACTTGGGTTCTAACCTGTTGCCA (site TTGCCGACTTG) | – | 0.0807
47 | TTGTCGACTTGGGTTCTAACCTGTTGCCA (site TTGGCGACTTG) | – | 0.00572
48 | TTGTCGACTTGGGTTCTAACCTGTTGCCA (site TTGTCGACTTG) | – | 0.087
49 | TTGTGAGCTTGGGTTCTAACCTGTTGCCA (site ACAGTTACTAT) | – | 0.0715
50 | TTGTGAGCTTGGGTTCTAACCTGTTGCCA (site TTGTGAGCTTG) | – | 1.1
